From patent publication US12686665B2, “Bicyclic fused ring derivative or salt thereof and pharmaceutical composition comprising same” (YUHAN CORPORATION, priority 2021, dated 2026)
Structures can show the parent of a compound that is named as a salt.

Tests used:
Type in all cases: biochemical
[1] = target: T1, recombinant human DAO (diamine oxidase) (Homo sapiens, UniProt P19801); assay: Amplex Red HRP-coupled amine oxidase assay, recombinant human DAO; conditions: 1 mM putrescine substrate, read-out: Inhibitory activity (IC50, nM) DAO
T1 construct: purchased R&D systems
T1 sequence (P19801 20-751): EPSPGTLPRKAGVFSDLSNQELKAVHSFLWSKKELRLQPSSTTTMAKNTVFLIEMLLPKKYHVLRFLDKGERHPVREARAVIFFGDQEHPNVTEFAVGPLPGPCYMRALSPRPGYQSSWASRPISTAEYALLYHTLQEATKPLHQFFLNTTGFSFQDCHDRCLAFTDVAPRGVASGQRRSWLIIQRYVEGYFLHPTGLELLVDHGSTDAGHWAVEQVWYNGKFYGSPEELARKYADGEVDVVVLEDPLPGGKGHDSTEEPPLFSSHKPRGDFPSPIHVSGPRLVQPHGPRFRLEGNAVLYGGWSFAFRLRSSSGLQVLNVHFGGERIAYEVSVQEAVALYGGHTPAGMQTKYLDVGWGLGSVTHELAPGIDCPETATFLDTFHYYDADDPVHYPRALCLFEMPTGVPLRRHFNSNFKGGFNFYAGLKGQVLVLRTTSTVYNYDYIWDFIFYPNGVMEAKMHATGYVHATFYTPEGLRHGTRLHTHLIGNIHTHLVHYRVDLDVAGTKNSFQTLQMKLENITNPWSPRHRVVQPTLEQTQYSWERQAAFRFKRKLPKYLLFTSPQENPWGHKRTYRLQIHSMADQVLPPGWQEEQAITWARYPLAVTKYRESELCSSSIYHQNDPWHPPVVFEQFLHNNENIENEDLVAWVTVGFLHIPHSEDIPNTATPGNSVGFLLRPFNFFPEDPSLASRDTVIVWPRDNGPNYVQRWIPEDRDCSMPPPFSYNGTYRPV
Experimental: (§1) The activities of the compounds according to the present invention against recombinant human Lysyl Oxidase-Like 2 (recombinant human LOXL2, R&D systems) were evaluated by measuring the levels of hydrogen peroxide in the HRP (horseradish peroxidase) coupled reactions, with the Amplex Red Hydrogen Peroxide Assay Kit (Molecular Probes, Invitrogen, USA). The tests were carried out at 37° C., and putrescine was used as a substrate. In the HRP coupling reaction, the oxidation of 10-acetyl-3,7-dihydroxyphenoxazine (Amplex Red reagent) by hydrogen peroxide generates a fluorescent product, i.e., resorufin. Briefly, the test compounds were dissolved in dimethyl sulfoxide (DMSO) at a concentration of 20 mM. Dose-response measurements were carried out by serial dilutions in DMSO to generate a six-point curve. The upper concentration was adjusted according to the potency of the compound, and then diluted with the reaction buffer to obtain a final DMSO concentration of 1%. Purified human LOXL2 in 50 mM sodium phosphate buffer (pH7.4) was added to each well of a 96 well black plate. The test compounds dissolved in DMSO were incubated with the human LOXL2 enzyme at 37° C. for 60 minutes. After the incubation for 60 minutes, a reaction mixture containing 400 μM Amplex Red reagent, 30 mM putrescine, and 2 U/mL HRP in 50 mM sodium phosphate buffer (pH 7.4) was added to each well. Fluorescence was measured with a microplate reader (Flexstation3, Molecular Devices), under the conditions of excitation at 530 nm and emission at 590 nm, 1 hour after the addition of the mixture. Inhibition by each compound was measured as % reduction in signal, compared to the control without an inhibitor (diluted DMSO only). The data were fixed to a four-variable logistic model, and […] values were calculated using the GraphPad Prism program.
(§2) And, the activities of the compounds according to the present invention against recombinant human MAO-A (monoamine oxidase-A, Sigma-Aldrich) and recombinant human MAO-B (monoamine oxidase-B, Sigma-Aldrich) were evaluated in a similar manner to the activity evaluation method for recombinant human LOXL2, using 0.5 mM tyramine and 1 mM benzylamine as a substrate, respectively. In addition, the activities of the compounds according to the present invention against recombinant human DAO (diamine oxidase, R&D systems) were evaluated in a similar manner to the activity evaluation method for recombinant human LOXL2, using 1 mM putrescine as a substrate.

[2] = target: T2, recombinant human Lysyl Oxidase-Like 2 (LOXL2) (Homo sapiens, UniProt Q9Y4K0); assay: Amplex Red HRP-coupled amine oxidase assay, recombinant human LOXL2; conditions: 60 min incubation with enzyme at 37° C., putrescine substrate, read-out: Inhibitory activity (IC50, nM) human LOXL2
T2 construct: purchased R&D systems
T2 sequence (Q9Y4K0 26-774): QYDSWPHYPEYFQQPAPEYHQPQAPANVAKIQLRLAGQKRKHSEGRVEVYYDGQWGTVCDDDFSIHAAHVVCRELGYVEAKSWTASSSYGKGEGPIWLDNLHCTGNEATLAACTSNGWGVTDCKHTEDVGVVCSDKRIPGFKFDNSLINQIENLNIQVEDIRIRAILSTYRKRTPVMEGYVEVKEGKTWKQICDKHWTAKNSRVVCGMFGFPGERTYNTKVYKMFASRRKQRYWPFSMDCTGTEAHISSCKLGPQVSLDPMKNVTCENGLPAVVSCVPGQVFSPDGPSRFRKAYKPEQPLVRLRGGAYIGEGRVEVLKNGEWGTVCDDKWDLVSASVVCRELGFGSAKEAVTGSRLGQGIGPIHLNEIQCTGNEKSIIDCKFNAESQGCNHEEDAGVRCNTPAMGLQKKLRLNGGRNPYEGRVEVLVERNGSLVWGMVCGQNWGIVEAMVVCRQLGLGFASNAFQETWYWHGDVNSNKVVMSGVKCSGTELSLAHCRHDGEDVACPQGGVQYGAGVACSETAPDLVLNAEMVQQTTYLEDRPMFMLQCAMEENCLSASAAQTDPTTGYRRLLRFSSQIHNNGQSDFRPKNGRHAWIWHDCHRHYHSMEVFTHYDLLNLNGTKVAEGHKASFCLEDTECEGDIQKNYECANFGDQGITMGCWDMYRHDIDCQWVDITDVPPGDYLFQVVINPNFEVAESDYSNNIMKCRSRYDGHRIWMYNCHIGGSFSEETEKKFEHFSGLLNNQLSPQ
How it was run: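 Putrescine substrate (30 mM) in 50 mM sodium phosphate pH 7.4, 37 °C; compounds preincubated 60 min with enzyme, 1% DMSO final, six-point curves. H2O2 detected via 400 μM Amplex Red/2 U/mL HRP, fluorescence (ex 530/em 590 nm) after 1 h; IC50 from four-parameter logistic fit of % signal reduction.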

[3] = target: T3, recombinant human MAO-A (monoamine oxidase-A) (Homo sapiens, UniProt P21397); assay: Amplex Red HRP-coupled amine oxidase assay, recombinant human MAO-A; conditions: 0.5 mM tyramine substrate, read-out: Inhibitory activity (IC50, nM) MAO-A
T3 construct: purchased Sigma-Aldrich
T3 sequence (P21397 1-527): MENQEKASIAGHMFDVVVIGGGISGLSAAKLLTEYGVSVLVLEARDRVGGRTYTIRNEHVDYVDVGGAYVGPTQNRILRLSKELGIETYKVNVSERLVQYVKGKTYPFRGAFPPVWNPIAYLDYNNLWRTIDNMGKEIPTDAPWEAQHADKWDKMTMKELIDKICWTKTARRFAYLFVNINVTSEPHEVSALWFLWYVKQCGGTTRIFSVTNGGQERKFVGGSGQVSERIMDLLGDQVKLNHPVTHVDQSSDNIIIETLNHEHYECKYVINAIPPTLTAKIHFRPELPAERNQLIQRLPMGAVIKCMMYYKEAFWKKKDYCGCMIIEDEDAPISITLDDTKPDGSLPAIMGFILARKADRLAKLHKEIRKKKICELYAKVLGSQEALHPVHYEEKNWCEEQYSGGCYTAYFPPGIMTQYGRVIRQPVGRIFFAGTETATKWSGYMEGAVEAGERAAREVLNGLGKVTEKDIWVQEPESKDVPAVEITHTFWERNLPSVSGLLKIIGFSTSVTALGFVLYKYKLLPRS
Experimental: as §1, §2

[4] = target: T4, recombinant human MAO-B (monoamine oxidase-B) (Homo sapiens, UniProt P27338); assay: Amplex Red HRP-coupled amine oxidase assay, recombinant human MAO-B; conditions: 1 mM benzylamine substrate, read-out: Inhibitory activity (IC50, nM) MAO-B
T4 construct: purchased Sigma-Aldrich
T4 sequence (P27338 1-520): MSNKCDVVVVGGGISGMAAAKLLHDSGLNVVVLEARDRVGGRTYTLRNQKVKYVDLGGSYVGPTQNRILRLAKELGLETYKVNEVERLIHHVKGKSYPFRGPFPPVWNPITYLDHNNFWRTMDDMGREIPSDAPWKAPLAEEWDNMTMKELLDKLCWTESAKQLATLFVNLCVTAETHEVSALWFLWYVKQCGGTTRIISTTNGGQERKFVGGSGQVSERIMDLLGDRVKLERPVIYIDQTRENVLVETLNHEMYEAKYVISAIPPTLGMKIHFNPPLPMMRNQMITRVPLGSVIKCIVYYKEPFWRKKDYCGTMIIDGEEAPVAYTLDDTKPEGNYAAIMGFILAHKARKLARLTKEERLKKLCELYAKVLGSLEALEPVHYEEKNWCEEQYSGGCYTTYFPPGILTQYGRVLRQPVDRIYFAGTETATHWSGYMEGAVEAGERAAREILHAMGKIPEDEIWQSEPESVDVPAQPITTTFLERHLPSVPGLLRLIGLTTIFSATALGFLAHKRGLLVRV
Experimental: as §1, §2

IC50 [1] [nM]	IC50 [2] [nM]	IC50 [3] [nM]	IC50 [4] [nM]	SMILES
2940	54	> 100000	71200	CS(=O)(=O)c1cccc(-c2cc(F)cc3c2ncn3C/C(F)=C/CN)c1 [Example 3, (Z)-3-fluoro-4-(6-fluoro-4-(3-(methylsulfonyl)phenyl)-1H-benzo[d]imidazol-1-yl)but-2-en-1-amine hydrochloride]
2410	35	26500	> 100000	NC/C=C(\F)Cn1cnc2c(-c3cccc(S(=O)(=O)N4CCCC4)c3)cc(F)cc21 [Example 7, (Z)-3-fluoro-4-(6-fluoro-4-(3-(pyrrolidin-1-ylsulfonyl)phenyl)-1H-benzo[d]imidazol-1-yl)but-2-en-1-amine hydrochloride]
3100	39	48600	> 100000	NC/C=C(\F)Cn1cnc2c(-c3cccc(S(=O)(=O)NC4CC4)c3)cc(F)cc21 [Example 9, (Z)-3-(1-(4-amino-2-fluorobut-2-en-1-yl)-6-fluoro-1H-benzo[d]imidazol-4-yl)-N-cyclopropylbenzenesulfonamide hydrochloride]
3920	22	65500	> 100000	CNS(=O)(=O)c1cccc(-c2cc(F)cc3c2ncn3C/C(F)=C/CN)c1 [Example 10, (Z)-3-(1-(4-amino-2-fluorobut-2-en-1-yl)-6-fluoro-1H-benzo[d]imidazol-4-yl)-N-methylbenzenesulfonamide hydrochloride]
2830	17.1		97000	COC(=O)c1cc(-c2cc(S(=O)(=O)NC3CC3)ccc2OC)c2nnn(C/C(F)=C/CN)c2c1 [Example 120, methyl (Z)-1-(4-amino-2-fluorobut-2-en-1-yl)-4-(5-(N-cyclopropylsulfamoyl)-2-methoxyphenyl)-1H-benzo[d][1,2,3]triazol-6-carboxylate hydrochloride]
	43.1	> 100000	> 100000	N#Cc1cc(-c2cccc(S(=O)(=O)N3CCCC3)c2)c2ncn(C/C(F)=C/CN)c2c1 [Example 181, (Z)-1-(4-amino-2-fluorobut-2-en-1-yl)-4-(3-(pyrrolidin-1-ylsulfonyl)phenyl)-1H-benzo[d]imidazol-6-carbonitrile hydrochloride]
	28.7	> 100000	> 100000	CN(C)S(=O)(=O)c1cccc(-c2cc(C#N)cc3c2ncn3C/C(F)=C/CN)c1 [Example 182, (Z)-3-(1-(4-amino-2-fluorobut-2-en-1-yl)-6-cyano-1H-benzo[d]imidazol-4-yl)-N,N-dimethylbenzenesulfonamide hydrochloride]
	99	> 100000	> 100000	CC(=O)c1ccc(F)c(-c2cc(C#N)cc3c2ncn3C/C(F)=C/CN)c1 [Example 184, (Z)-4-(5-acetyl-2-fluorophenyl)-1-(4-amino-2-fluorobut-2-en-1-yl)-1H-benzo[d]imidazol-6-carbonitrile hydrochloride]
	95.5	> 100000	> 100000	Cn1nccc1-c1cc(C#N)cc2c1ncn2C/C(F)=C/CN [Example 191, (Z)-1-(4-amino-2-fluorobut-2-en-1-yl)-4-(1-methyl-1H-pyrazol-5-yl)-1H-benzo[d]imidazol-6-carbonitrile hydrochloride]
	137	> 100000	> 100000	CCn1nccc1-c1cc(C#N)cc2c1ncn2C/C(F)=C/CN [Example 192, (Z)-1-(4-amino-2-fluorobut-2-en-1-yl)-4-(1-ethyl-1H-pyrazol-5-yl)-1H-benzo[d]imidazol-6-carbonitrile hydrochloride]
1730	350			Cn1nccc1-c1cc(C#N)cc2c1nnn2C/C(F)=C/CN [Example 211, (Z)-1-(4-amino-2-fluorobut-2-en-1-yl)-4-(1-methyl-1H-pyrazol-5-yl)-1H-benzo[d][1,2,3]triazol-6-carbonitrile hydrochloride]
